Measured values from patent US8466273B2, “Hepatitis C virus inhibitors” (priority 2008, dated 2013).

Columns and labels:
[1] = test system: HCV replication in R6FLR-N cells; experiment: HCV replication activity by luciferase assay in R6FLR-N replicon cells; assay type: cell-based, Hepatitis C virus (genotype 1b); conditions: for replication of HCV (luminescence relative to control siRNA group defined as 100%): 4.2 nM siRNA, 72 hours post-treatment; for minimal effective concentration showing a significant inhibitory effect against HCV replication vs. the control siRNAs: data not shown
Text: The inhibitory effect against HCV replication can be determined by using HCV replicon cells (Lohmann et al., Science, 1999, 285 (5424):110-113). HCV replicon cells bear a luciferase gene as an indicator gene fused to a nonstructural protein (NS) region necessary for the replication of HCV. HCV replication activity can be measured by luciferase assays. Viral inhibitory activity can also be evaluated by using HCV infection systems (Wakita et al., Nat. Med. 2005, 11 (7), 791-796).
In this study, HCV-replicating cells (FLR3-1 and R6FLR-N) established from Huh-7 replicon cells (Lohmann et al., Science, 1999, 285 (5424):110-3) containing a luciferase-neo fusion gene and three HCV nonstructural protein regions (NS3-NS5b) after G418 selection were used. The use of these cells allows HCV replication activity to be measured by a luciferase assay. The HCV-replicating cells (FLR3-1 or R6FLR-N) were reverted by treatment with interferon α (100 IU/ml) for 72 hours or more to lower the HCV replication level and used as control cells (see Guo J T, Bichko V V, Seeger C., J. Virol. 2001, 75 (18):8516-23). The cells were incubated in Dulbecco's modified Eagle's medium (DMEM) GlutaMax I containing penicillin (100 U/ml), streptomycin (100 μg/ml), G418 (500 μg/ml), and 10% FCS (SIGMA).
The reverse transfection of the siRNAs was performed as follows. In each well of a 96-well plate (Falcon) containing Opti-MEM I medium was added each siRNA at a final concentration of 4.2, 12.6, and 25.2 nM and the plate was gently shaken. Lipofectamine™ RNAiMAX was mixed before use and added to the well (0.1 μl/well), and the plate was gently shaken and allowed to stand for 10-20 minutes at room temperature. R6FLR-N cells were plated at a density of 5×10^3 cells/well and incubated at 37° C. in 5% CO2 for 5 hours. The culture medium was replaced with 10% DMEM-Glutamax, and the cells were further incubated at 37° C. in 5% CO2. A plate containing the medium and Lipofectamine alone without siRNA (“Lipo”) and a plate containing the medium alone (“No”) were used as controls.
After incubation for 24, 48, and 72 hours, the HCV replication activity was measured by a luciferase assay. The replication activity is expressed relative to the luminescence intensity in the groups treated with the control siRNAs (“Ctrl”) defined as 100%. The experiment was performed in triplicate, and the average±S.D. was graphically shown. Statistical analysis was performed by Student's t-test.
FLR3-1 cells and R6FLR-N cells were incubated with a rabbit anti-BGT-1 polyclonal antibody (abcam) or a mouse anti-AKR1C1 polyclonal antibody (Abnova) for 72 hours. After incubation, the relative luminescence unit (RLU) was measured by a luciferase assay to evaluate the inhibitory activity against HCV replication. Normal rabbit serum was used as a control of the anti-BGT-1 antibody, and normal mouse serum was used as a control of the anti-AKR1C1 antibody. Each antibody was diluted at 1:100-1:10000 in 3% BSA/PBS. The experiment was performed in triplicate, and the average±S.D. was graphically shown. Statistical analysis was performed by Student's t-test.
R6FLR-N cells were also incubated with another BGT-1 inhibitor NNC05-2090 for 24-72 hours, and then analyzed by a luciferase assay in the same manner. NNC05-2090 was dissolved in DMSO at a final concentration of 0.1-10 μM (FIG. 7).

[2] = test system: R6FLR-N cells; experiment: Cytotoxic activity against HCV-replicating cells (Cell Counting Kit-8 / WST), R6FLR-N; assay type: cell-based
Method: In the same manner as described above, the siRNA were reversely transfected into R6FLR-N cells in a 96-well plate (Falcon). After incubation for 24, 48, and 72 hours, the number of viable cells was counted by a chromogenic reaction at 37° C. for 1 hour using Cell Counting Kit-8 (DOJINDO) following the manufacturer's protocol. The results are expressed relative to the cell survival rate in the groups treated with the control siRNAs defined as 100%. The experiment was performed in triplicate, and the average±S.D. was graphically shown. Statistical analysis was performed by Student's t-test.
FLR3-1 cells and R6FLR-N cells were incubated with the rabbit anti-BGT-1 polyclonal antibody or mouse anti-AKR1C1 polyclonal antibody described above for 72 hours. After incubation, the OD450/650 was measured by a chromogenic reaction at 37° C. for 1 hour using Cell Counting Kit-8 (DOJINDO) following the manufacturer's protocol. Normal rabbit serum was used as a control of the anti-BGT-1 antibody, and normal mouse serum was used as a control of the anti-AKR1C1 antibody. Each antibody was diluted at 1:100-1:10000 in 3% BSA/PBS. The experiment was performed in triplicate, and the average±S.D. was graphically shown. Statistical analysis was performed by Student's t-test.
(§1) In the same manner as described above, the cytotoxic activity of tiagabine (1 mM), NNC05-2090 (0.1-10 μM), and flufenamic acid (1 μM-1 mM) against HCV-replicating cells was evaluated by the WST assay. The experiment was performed in triplicate, and the average±S.D. was graphically shown. Statistical analysis was performed by Student's t-test.

[3] = test system: FLR3-1, R6FLR-N and JFH1 cells; experiment: Cytotoxic activity of inhibitors by WST assay in FLR3-1, R6FLR-N and JFH1 cells; assay type: cell-based
Method: HCV-replicating cells were incubated with a BGT-1 inhibitor tiagabine or an AKR1C1 inhibitor flufenamic acid, and the inhibitory effect against HCV replication was evaluated by a luciferase assay. Tiagabine was dissolved in sterile distilled water at a final concentration of 1 mM, and flufenamic acid was dissolved in 1% EtOH at a final concentration of 1 μM-1 mM. The assay was performed after a reaction period of 24 hours in expectation of the rapid action of the inhibitors. The HCV-replicating cells used were FLR3-1, R6FLR-N (both genotype 1b) and JFH1 (genotype 2a: Kato et al., Gastroenterology, 2003, 125 (6):1808-17). The cells incubated in the medium alone were used as “controls”. The experiment was performed in triplicate, and the average±S.D. was graphically shown. Statistical analysis was performed by Student's t-test.
as §1

[4] = test system: AKR1C1 gene; experiment: Inhibition of AKR1C1 gene expression by siRNA, RT-PCR; assay type: cell-based, Homo sapiens; conditions: data not shown
Method: (§2) The expression of BGT-1 and AKR1C1 and the inhibition of the expression by their siRNAs were analyzed by Western blotting and PCR.
(§3) The inhibition of the expression of the BGT-1 gene and the AKR1C1 gene by their siRNAs was also verified by RT-PCR using the following primers (data not shown): […]

[5] = test system: BGT-1 gene; experiment: Inhibition of BGT-1 gene expression by siRNA, RT-PCR; assay type: cell-based, Homo sapiens; conditions: data not shown
Method: as §2, §3

COc1ccccc1C1(O)CCN(CCCn2c3ccccc3c3ccccc32)CC1 [NNC05-2090, 1-(3-(9H-carbazol-9-yl)-1-propyl)-4-(2-methoxyphenyl)-4-piperidinol, reference compound]
RLU vs. the vehicle group (DMSO) ([1]; 10 μM, 24 hours, R6FLR-N cells): 30% | OD value as % of the vehicle group (WST assay) ([2]; 3 μM, 48 hours post-treatment): about 26% | OD value as % of the vehicle group (WST assay) ([2]; 10 μM, 24 hours post-treatment): about 23%

O=C(O)c1ccccc1Nc1cccc(C(F)(F)F)c1 [flufenamic acid]
OD value as % of the value of the 0 μM group (WST assay) ([3]; 100 μM, all types of HCV-replicating cells): ≤ 80%

Cc1ccsc1C(=CCCN1CCC[C@@H](C(=O)O)C1)c1sccc1C [tiagabine]
cytotoxic activity against HCV-replicating cells (WST assay) ([3]; 1 mM, 24 hours, FLR3-1, R6FLR-N, JFH1 cells): significantly injured HCV-replicating cells in only FLR3-1 cells

siRNA of AKR1C1: siRNA of the AKR1C1 gene, 5′-AAGUAAAGCUUUAGAGGCCACCAAA-3′, nucleotides 93-117 (chemistry not given here)
replication of HCV (luminescence relative to control siRNA group defined as 100%) ([1]; R6FLR-N cells): 40±1% | minimal effective concentration showing a significant inhibitory effect against HCV replication vs. the control siRNAs [1]: 0.5 nM | cell survival rate (relative to control siRNA group defined as 100%) ([2]; 4.2 nM siRNA, 72 hours post-treatment): 53±18% | inhibition of the expression of the AKR1C1 gene by RT-PCR [4]: verified

siRNA of BGT-1: siRNA of the BGT-1 gene, 5′-CAACAAGAUGGAGUUUGUGCUGUCA-3′, nucleotides 120-144 (chemistry not given here)
replication of HCV (luminescence relative to control siRNA group defined as 100%) ([1]; R6FLR-N cells): ≤ 10±4% | minimal effective concentration showing a significant inhibitory effect against HCV replication vs. the control siRNAs [1]: 0.5 nM | cytotoxic activity against HCV-replicating cells ([2]; any siRNA concentration tested (4.2, 12.6, 25.2 nM)): any significant cytotoxic activity was not detected | inhibition of the expression of the BGT-1 gene by RT-PCR [5]: verified
